Experimental data from the CheMixHub ionic liquid set.
± gives the uncertainty stated by the source.

Assay: xn = mol fraction of the nth substance listed

CCCC[N+](CCCC)(CCCC)CCCC.O=S(=O)([O-])O + O
viscosity [mPa·s], 101 kPa
Details	x1 = 9.009e-05	x1 = 0.0001802	x1 = 0.0002702	x1 = 0.0003603
298.15 K	0.894 ± 0.008	0.896 ± 0.008	0.899 ± 0.008	0.901 ± 0.008
308.15 K	0.723 ± 0.007	0.726 ± 0.007	0.728 ± 0.007	0.73 ± 0.007
318.15 K	0.602 ± 0.006	0.603 ± 0.006	0.605 ± 0.006	0.608 ± 0.006

CCCC[n+]1ccn(C)c1.O=[N+]([O-])[O-] + O
Details	viscosity [mPa·s]
295.15 K, 101 kPa, x2 = 0.1659	73 ± 8
308 K, 100 kPa, x1 = 0.4463	14.67 ± 0.32
308 K, 100 kPa, x1 = 0.6298	29.49 ± 0.64
313 K, 100 kPa, x1 = 0.05634	1.464 ± 0.07
313 K, 100 kPa, x1 = 0.08219	2.196 ± 0.053
313 K, 100 kPa, x1 = 0.2637	6.31 ± 0.14

CCCOCCn1cc[n+](C)c1.O=S(=O)([N-]S(=O)(=O)C(F)(F)F)C(F)(F)F + O
101 kPa, x1 = 0.8306
Details	viscosity [mPa·s]
283 K	78.3 ± 1.8
298.1 K	38.7 ± 0.9

CCCn1cc[n+](CCC)c1.O=S(=O)([N-]S(=O)(=O)C(F)(F)F)C(F)(F)F + O
100 kPa, x2 = 0.2232
Details	viscosity [mPa·s]
303.15 K	29.21 ± 0.25
313.15 K	20.49 ± 0.18
333.15 K	11.48 ± 0.1
348.15 K	8.09 ± 0.07
363.15 K	6 ± 0.05

CCOS(=O)(=O)[O-].CC[N+]1(C)CCCCC1 + O
101 kPa
Details	viscosity [mPa·s]
298.15 K, x2 = 0.1867	690 ± 120
298.15 K, x2 = 0.5338	97 ± 16
298.15 K, x2 = 0.894	7.4 ± 1.2
303.15 K, x2 = 0.894	6.2 ± 1
308.15 K, x2 = 0	800 ± 140
308.15 K, x2 = 0.4417	92 ± 15
308.15 K, x2 = 0.8593	7.7 ± 1.2
313.15 K, x2 = 0.4417	71 ± 11
313.15 K, x2 = 0.8593	6.5 ± 1
318.15 K, x2 = 0.3409	90 ± 15
323.15 K, x2 = 0.2704	93 ± 15
323.15 K, x2 = 0.7839	8.8 ± 1.4
328.15 K, x2 = 0.2704	73 ± 12
328.15 K, x2 = 0.7839	7.5 ± 1.2
333.15 K, x2 = 0.1867	80 ± 13
333.15 K, x2 = 0.7357	8.6 ± 1.4
338.15 K, x2 = 0.1867	65 ± 10
338.15 K, x2 = 0.7357	7.5 ± 1.2
343.15 K, x2 = 0	100 ± 16
343.15 K, x2 = 0.7357	6.8 ± 1.1
